≈ marks a conversion by molar mass, not a printed value.
Experiments:
[1] = system: K. pneumoniae 81 KPC-3-positive; assay: checkerboard microdilution, antibiotic plus tested agent; type: cell-based, Klebsiella pneumoniae
Procedure, shortened: (§1)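 Read-out is the antibiotic MIC with agent present, plus FICI = combined/alone MIC ratios summed for both partners. Meropenem pairs served for carbapenemase strains and ceftazidime pairs for the AmpC strain. Agent or PBA was tested at 4–16 mg/L.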

[2] = system: K. pneumoniae 83 KPC-3-positive, CTX-M-3-positive; assay: as above; type: cell-based, Klebsiella pneumoniae
Procedure, shortened: as §1

[3] = system: K. pneumoniae ATCC BAA-1705 KPC-2-positive; assay: as above; type: cell-based, Klebsiella pneumoniae
Procedure, shortened: as §1

C. albicans ATCC 90028 = assay: antifungal activity (disc-diffusion, MIC, MFC); type: cell-based; conditions: Candida albicans, ATCC90028; for MIC: fluconazole by Etest
Procedure, shortened: (§2)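 Disc-diffusion, MIC, MBC (bacteria) and MFC (yeasts) were determined per EUCAST and CLSI recommendations. Diboronic acids were dissolved in DMSO and applied at 0.4 mg per disc for diffusion. References: nitrofurantoin (Gram-negative rods), linezolid (Gram-positive), fluconazole (fungi).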

S. cerevisiae ATCC 9763 = assay: antifungal activity (disc-diffusion, MIC, MFC); type: cell-based; conditions: Saccharomyces cerevisiae, ATCC9763; for zone of inhibition at 0.4 mg/disc: 0.4 mg per disc, 9 mm disc (fluconazole 0.025 mg, 6 mm disc), - no zone, read-out: Diameter of inhibition zone; for MIC: fluconazole by Etest
Procedure, shortened: as §2

C. tropicalis ATCC 750 = assay: antifungal activity (disc-diffusion, MIC, MFC); type: cell-based; conditions: Candida tropicalis, ATCC750; for MIC: fluconazole by Etest
Procedure, shortened: as §2

C. tropicalis IBA 171 = assay: antifungal activity (disc-diffusion, MIC, MFC); type: cell-based; conditions: Candida tropicalis, IBA171; for MIC: fluconazole by Etest
Procedure, shortened: as §2

[4] = system: E. coli 77 CMY-2-positive; assay: checkerboard microdilution, antibiotic plus tested agent; type: cell-based, Escherichia coli
Procedure, shortened: as §1

[5] = system: E. coli 76 KPC-2-positive; assay: as above; type: cell-based, Escherichia coli
Procedure, shortened: as §1

[6] = system: P. aeruginosa MUW 700 AmpC(+); assay: screening test of direct antimicrobial activity (STDA), disc-diffusion; type: cell-based; conditions: Pseudomonas aeruginosa; 0.3 mg per disc; - no zone; read-out: Diameter of inhibition zone around disc with tested agent
Protocol: (§3) Prior to combination disc tests, screening tests of direct antimicrobial activity (STDA) of the tested agent against β-lactamase-producing strains were performed by the disc-diffusion method. Discs with 0.3 mg, 0.1 mg, and 0.03 mg of each agent were examined. The highest amount of an agent that caused no effect on bacterial growth was used in further experiments.

E. coli 77 CMY-2(+) = assay: as above; type: cell-based; conditions: Escherichia coli; 0.3 mg per disc; - no zone; read-out: Diameter of inhibition zone around disc with tested agent
Protocol: as §3

[7] = system: K. pneumoniae ATCC BAA 1705 KPC(+); assay: as above; type: cell-based; conditions: Klebsiella pneumoniae, BAA1705; 0.3 mg per disc; - no zone; read-out: Diameter of inhibition zone around disc with tested agent
Protocol: as §3

[8] = system: K. pneumoniae ATCC 700603 ESBL(+); assay: as above; type: cell-based; conditions: Klebsiella pneumoniae, ATCC700603; 0.3 mg per disc; - no zone; read-out: Diameter of inhibition zone around disc with tested agent
Protocol: as §3

[9] = system: K. pneumoniae ATCC BAA 1705 KPC-2-positive; assay: combination disc test CDT-KPC; type: cell-based; conditions: Klebsiella pneumoniae, BAA1705, read-out: Diameter of inhibition zone, MEM-10 disc with agent; for zone of inhibition at 100 µg/disc: agent 0.1 mg per disc
[10] = system: S. epidermidis ATCC 12228; assay: direct antimicrobial activity (disc-diffusion, MIC, MBC); type: cell-based; conditions: Staphylococcus epidermidis, ATCC12228; for zone of inhibition at 0.4 mg/disc: 0.4 mg per disc, 9 mm disc (linezolid 0.03 mg, 6 mm disc), - no zone, read-out: Diameter of inhibition zone
Procedure, shortened: as §2

E. faecium ATCC 6057 = assay: as above; type: cell-based; conditions: Enterococcus faecium, ATCC6057; for zone of inhibition at 0.4 mg/disc: 0.4 mg per disc, 9 mm disc (linezolid 0.03 mg, 6 mm disc), - no zone, read-out: Diameter of inhibition zone
Procedure, shortened: as §2

[11] = 0.4 mg per disc, 9 mm disc (fluconazole 0.025 mg, 6 mm disc), - no zone, read-out: Diameter of inhibition zone

Row | Structure (SMILES) | MIC (C. albicans ATCC 90028) | MIC (S. cerevisiae ATCC 9763) | MIC (C. tropicalis ATCC 750) | MIC (C. tropicalis IBA 171) | MIC [10] | MIC (E. faecium ATCC 6057) | Average FICI with ERT [1] | Average FICI with IMI [1] | Average FICI with MEM [1] | The lowest FICI with ERT [1] | zone of inhibition at 0.4 mg/disc (S. cerevisiae ATCC 9763) | Average FICI with ceftazidime [4] | The lowest FICI with ceftazidime [4] | zone of inhibition at 300 µg/disc [6] | zone of inhibition at 300 µg/disc (E. coli 77 CMY-2(+)) | zone of inhibition at 300 µg/disc [7] | zone of inhibition at 300 µg/disc [8] | zone of inhibition at 100 µg/disc [9] | zone of inhibition at 0.4 mg/disc [10] | zone of inhibition at 0.4 mg/disc (E. faecium ATCC 6057) | also measured
1 | OB(O)c1cc(F)c(B(O)O)cc1F [1e] | > 400 µg/mL | 400 µg/mL (≈ 1980 µM) | > 400 µg/mL | > 400 µg/mL | 25 µg/mL (≈ 124 µM) | 100 µg/mL (≈ 496 µM) | 0.55 | 0.38 | 0.46 | 0.52 | 13 mm | 0.17 | 0.14 | 14 mm | 18 mm | 15 mm | 14 mm | 11 mm | 21 mm | 14 mm | The lowest FICI with IMI [1]: 0.29; The lowest FICI with MEM [1]: 0.33; Average FICI with ERT [2]: 0.63; Average FICI with IMI [2]: 0.55; Average FICI with MEM [2]: 0.63; The lowest FICI with ERT [2]: 0.33; The lowest FICI with IMI [2]: 0.52; The lowest FICI with MEM [2]: 0.33; Average FICI with ERT [3]: 0.88; Average FICI with IMI [3]: 0.71; Average FICI with MEM [3]: 0.46; The lowest FICI with ERT [3]: 0.58; The lowest FICI with IMI [3]: 0.54; The lowest FICI with MEM [3]: 0.33; Average FICI with ERT [5]: 0.39; Average FICI with IMI [5]: 0.51; Average FICI with MEM [5]: 0.51; The lowest FICI with ERT [5]: 0.29; The lowest FICI with IMI [5]: 0.41; The lowest FICI with MEM [5]: 0.41
2 | OB(O)c1cc(F)cc(B(O)O)c1 [2b] | > 400 µg/mL | > 400 µg/mL | > 400 µg/mL | > 400 µg/mL | 50 µg/mL (≈ 272 µM) | 400 µg/mL (≈ 2180 µM) |  |  |  |  |  | 0.17 | 0.10 | 11 mm | 13 mm |  |  |  | 19 mm | 14 mm | zone of inhibition at 300 µg/disc ([9]; agent 0.3 mg per disc): 19 mm
3 | OB(O)c1cc(B(O)O)c(F)cc1F [2c] | > 400 µg/mL | > 400 µg/mL | > 400 µg/mL | > 400 µg/mL | 50 µg/mL (≈ 248 µM) | 400 µg/mL (≈ 1980 µM) |  |  |  |  |  | 0.21 | 0.17 | 11 mm | 15 mm | 14 mm | 13 mm | 6 mm |  |  | 

The next lines start with results.

Row | MIC (C. albicans ATCC 90028) | MIC (S. cerevisiae ATCC 9763) | MIC (C. tropicalis ATCC 750) | MIC (C. tropicalis IBA 171) | MIC [10] | MIC (E. faecium ATCC 6057) | Structure (SMILES) | Average FICI with ERT [1] | Average FICI with IMI [1] | Average FICI with MEM [1] | The lowest FICI with ERT [1] | zone of inhibition at 0.4 mg/disc (S. cerevisiae ATCC 9763) | Average FICI with ceftazidime [4] | The lowest FICI with ceftazidime [4] | zone of inhibition at 300 µg/disc [6] | zone of inhibition at 300 µg/disc (E. coli 77 CMY-2(+)) | zone of inhibition at 300 µg/disc [7] | zone of inhibition at 300 µg/disc [8] | zone of inhibition at 100 µg/disc [9] | zone of inhibition at 0.4 mg/disc [10] | zone of inhibition at 0.4 mg/disc (E. faecium ATCC 6057) | also measured
4 | > 400 µg/mL | 25 µg/mL (≈ 136 µM) | > 400 µg/mL | 400 µg/mL (≈ 2180 µM) | 100 µg/mL (≈ 544 µM) | 200 µg/mL (≈ 1090 µM) | OB(O)c1ccc(B(O)O)c(F)c1 [1b] | 0.43 | 0.35 | 0.28 | 0.27 | 14 mm | 0.17 | 0.10 | 12 mm | 12 mm | 13 mm | 12 mm | 11 mm | 17 mm |  | The lowest FICI with IMI [1]: 0.26; The lowest FICI with MEM [1]: 0.08; Average FICI with ERT [2]: 0.43; Average FICI with IMI [2]: 0.43; Average FICI with MEM [2]: 0.60; The lowest FICI with ERT [2]: 0.27; The lowest FICI with IMI [2]: 0.27; The lowest FICI with MEM [2]: 0.27; Average FICI with ERT [3]: 0.51; Average FICI with IMI [3]: 0.43; Average FICI with MEM [3]: 0.43; The lowest FICI with ERT [3]: 0.51; The lowest FICI with IMI [3]: 0.27; The lowest FICI with MEM [3]: 0.27; Average FICI with ERT [5]: 0.32; Average FICI with IMI [5]: 0.32; Average FICI with MEM [5]: 0.36; The lowest FICI with ERT [5]: 0.17; The lowest FICI with IMI [5]: 0.17; The lowest FICI with MEM [5]: 0.27
5 | > 400 µg/mL | 200 µg/mL (≈ 991 µM) | > 400 µg/mL | > 400 µg/mL | 50 µg/mL (≈ 248 µM) | 200 µg/mL (≈ 991 µM) | OB(O)c1ccc(B(O)O)c(F)c1F [1c] |  |  |  |  |  | 0.19 | 0.14 | 13 mm | 17 mm | 12 mm | 14 mm | 6 mm | 28 mm | 15 mm | 
6 | 200 µg/mL (≈ 991 µM) | 200 µg/mL (≈ 991 µM) | 400 µg/mL (≈ 1980 µM) | 200 µg/mL (≈ 991 µM) | 25 µg/mL (≈ 124 µM) | > 400 µg/mL | OB(O)c1cc(F)c(B(O)O)c(F)c1 [1d] | 0.40 | 0.36 | 0.29 | 0.17 | 13 mm | 0.23 | 0.17 | 12 mm | 13 mm | 15 mm | 14 mm | 12 mm | 21 mm |  | The lowest FICI with IMI [1]: 0.27; The lowest FICI with MEM [1]: 0.10; Average FICI with ERT [2]: 0.69; Average FICI with IMI [2]: 0.52; Average FICI with MEM [2]: 0.61; The lowest FICI with ERT [2]: 0.52; The lowest FICI with IMI [2]: 0.51; The lowest FICI with MEM [2]: 0.29; Average FICI with ERT [3]: 0.86; Average FICI with IMI [3]: 0.69; Average FICI with MEM [3]: 0.44; The lowest FICI with ERT [3]: 0.54; The lowest FICI with IMI [3]: 0.52; The lowest FICI with MEM [3]: 0.29; Average FICI with ERT [5]: 0.36; Average FICI with IMI [5]: 0.44; Average FICI with MEM [5]: 0.44; The lowest FICI with ERT [5]: 0.27; The lowest FICI with IMI [5]: 0.29; The lowest FICI with MEM [5]: 0.29
7 | 50 µg/mL (≈ 228 µM) | 50 µg/mL (≈ 228 µM) | 100 µg/mL (≈ 455 µM) | 50 µg/mL (≈ 228 µM) | 50 µg/mL (≈ 228 µM) | 200 µg/mL (≈ 910 µM) | OB(O)c1cc(F)c(B(O)O)c(F)c1F [1f] |  |  |  |  | 20 mm | 0.24 | 0.21 | 12 mm | 15 mm | 16 mm | 18 mm | 6 mm | 17 mm |  | zone of inhibition at 0.4 mg/disc (C. albicans ATCC 90028; [11]): 24 mm; zone of inhibition at 0.4 mg/disc (C. tropicalis ATCC 750; [11]): 18 mm; zone of inhibition at 0.4 mg/disc (C. tropicalis IBA 171; [11]): 20 mm
8 | 400 µg/mL (≈ 1980 µM) | > 400 µg/mL | > 400 µg/mL | > 400 µg/mL | 50 µg/mL (≈ 248 µM) | 200 µg/mL (≈ 991 µM) | OB(O)c1cc(F)c(F)c(B(O)O)c1 [2d] |  |  |  |  |  | 0.19 | 0.14 | 12 mm | 15 mm | 11 mm | 11 mm | 6 mm | 12 mm | 14 mm | 
